Test results taken from US10603325B2, “Methods of treating age-related symptoms in mammals and compositions therefor” (University of Maryland, priority 2014, dated 2020).
Entries after “also recorded” stand apart in the source; their conditions may differ.

Tests used:
Skin tissues = test: Skin hydration test (DPM9003); format: cell-based; conditions: MB for 2 weeks
Method: Skin tissues were treated with MB for 2 weeks, then skin hydration was detected by using DPM9003 with 4 mm probe. […] See the results obtained in FIG. 13. The noted small variations appear to have been due to pressure and leakage of medium.

[1] = test system: PGC-1α in normal and HGPS fibroblasts; test: PGC-1α expression (western blot, quantitative RT-PCR); format: cell-based, human; conditions: MB 100 nM, 8 weeks
[2] = test system: mitochondria in normal and HGPS fibroblasts; test: TEM scoring of mitochondrial abnormalities; format: cell-based, human; conditions: MB 100 nM, 8 weeks
Method: (§1) (Upper panel). Normalized relative HP1α protein levels in each sample are shown in the lower graph.
(§2) To evaluate the effects of MB on mitochondria, ATP levels, mitochondrial superoxide (MitoSOX) and overall intracellular ROS (DCFDA) in Mock or MB-treated cells.
(§3) Passage-matched normal or HGPS skin fibroblasts were grown on 35-mm glass bottom dish until 80% confluence. Cells were prepared for transmission electron microscopic analysis following the protocol of McCord et al. Briefly, cells were fixed with 2.5% glutaraldehyde in 0.1 M sodium cacodylate (pH 7.4) for one hour at room temperature. Specimens were washed three times with 0.1 M sodium cacodylate and post-fixed for one hour with 1% osmium tetroxide in 0.1 M sodium cacodylate at room temperature. After washing three times with distilled water, specimens were incubated with 2% aqueous uranyl acetate at room temperature. The specimens were dehydrated in ethanol gradients: 35% for 10min, 50% for 10min, 70% for 10min, for 95% for 10 min, and 100% for 3×5 min. […] Mitochondrial morphological quantification was conducted blindly by a trained TEM expert. Two observers scored over 360 mitochondria from 10 randomly selected cells in each group blindly. […] Over 300 mitochondria in either normal or HGPS lines were blindly scored according to these criteria.

HGPS cells [3] = test: Perinuclear heterochromatin (TEM) and HP1α immunostaining/western blotting; format: cell-based, human
Excerpt: as §1
Based on the results from FIG. 4 and FIGS. 5A-D, it was hypothesized that While MB is a universal mitochondrial-targeting antioxidant for both normal and HGPS cells, it has a specific role in HGPS cells by dislocating progerin away from the nuclear membrane. Previous studies reported that the anchorage of progerin to the nuclear membrane caused a loss of perinuclear heterochromatin in HGPS Cells. […] The rescue of heterochromatin loss by MB was further verified by immunostaining and western blotting using an antibody against heterochromatin protein 1alpha (HP1α).
as §3, with “min. The infiltration was performed in EtOH: EPON resin mixture at various ratio from 1:1, 1:2, 1:3 or complete EPON for one hour each ratio. The specimens were finally embedded in complete EPON at 60° C. over night.” for “min.”

[4] = test system: normal and HGPS fibroblasts; test: ROS assays by flow cytometry (MitoSOX, DCFDA); format: cell-based, human
Method: as §1, §2
To measure mitochondrial superoxide, MB or other antioxidant treated skin fibroblast cells cultured on 60-mm dishes were incubated with fresh complete medium containing 5 μM MitoSOXRed (Life Technologies) at 37° C. After 30 minutes, stained cells were harvested by trypsin digestion and rinsed twice with PBS. Single cell suspensions in 400 μl PBS were prepared for FACS analysis (FACS Canto II; BD). MitoSOX Red was excited by laser at 488 nm, and the data was collected at 582±21 nm. See results in FIG. 10.
To measure mitochondrial superoxide, cells grown on 60-mm dishes were incubated with fresh complete medium containing 5 μM MitoSOX Red (Life Technologies, M36008) at 37° C. After 30 minutes, stained cells were harvested by trypsin digestion and rinsed twice with PBS. Single cell suspensions in 400 μl PBS were prepared for FACS analysis (FACS Canto II; BD). […] Mitochondrial membrane potential (MMP, Life Technologies, M34152) and Annexin V-positive apoptotic cells (BD Pharmingen, 556547) were measured according to manufacturer's protocol. Flow cytometry was performed by FACS Cantoll (BD) and the data were analyzed by FlowJo Software.

[5] = test system: Epiderm Full Thickness (EFT-412) skin tissue; test: Histological analysis (H&E) of skin tissue; format: cell-based; conditions: MB at various concentration for two weeks
Excerpt: H&E staining on the MB treated skin tissues. […] See the results obtained in FIG. 15.

progerin in HGPS cells = test: Confocal microscopy of progerin distribution; format: cell-based, human; conditions: MB treated HGPS cells, anti-progerin antibody staining
HGPS cells [6] = test: Senescence: SA-β-gal assay and p16 expression analysis; format: cell-based, human; conditions: MB-treated vs mock-treated HGPS cells
Method: SA-β-gal activity assay was performed according to the manufacturer's protocol (#9860; Cell Signaling). Briefly, fibroblasts cells grown on six-well plate were fixed in 1× fixative solution containing 2% formaldehyde and […] for 10 minutes, and then stained overnight at 37° C. with the (3-galactosidase staining solution at pH 6.0 for 15 hours. Images were acquired by Zeiss AX10 microscope with a SPOT PURSUIT camera.

normal fibroblasts = test: RNA-seq gene expression differential analysis; format: cell-based, human; conditions: Normal+Vehicle vs. Normal+MB, 100 nM
Method: (§4) FIG. 6(A)-(B): Methylene Blue Rescues Gene Expression in HGPS Cells • (A) Pie chart showing the percentages and (B) the counted gene numbers of unaffected- and affected-genes in paired comparison among four groups (Normal+Vehicle vs. Progeria+Vehicle; Normal+Vehicle vs. Normal+MB; Progeria+Vehicle vs. Progeria+MB; and Normal+Vehicle+Progeria+MB).
(§5) Chromatin re-organization after MB treatment may induce gene expression changes. To examine the effects of MB on gene expression, RNA-seq was conducted in Mock and MB treated normal and HGPS cells, and gene expression differential analysis was performed using Tophat and Cufflinks suite of tools (see Methods). The RNA-seq data was obtained from two biological replicates; each included four groups of samples (Normal+Vehicle; Normal+MB; HGPS+Vehicle; and HGPS+MB). Pairwise comparisons were conducted (FIG. 6A-B). Consistent with previous studies, there are more than 20% differentially expressed genes (up/down: 7.79%/14.18%) in HGPS cells vs. normal fibroblasts (FIG. 6A-1).
(§6) For RNA sequencing experiments, the cell pellets of Normal or HGPS fibroblasts were collected from two individually cultured cells treated with vehicle or 100 nM MB from P15 or P16 to P20. Total RNA was extracted with Trizol (Life Sciences), followed by RNA precipitation with isopropanol, then purified using the RNeasy Mini Kit (Qiagen). The RNA quality was checked using Agilent 2100 Bioanalyzer showing good RIN numbers (8.90=9.70) in all eight samples. The RNA-seq sample preparation and sequencing were conducted according to the Illumina Truseq RNA sample preparation V2 guide by the IBBR Sequencing Core Facility at the University of Maryland. RNA-seq mapping and gene expression differential analysis was performed using Tophat and Cufflinks suite of tools as described previously by Trapnell et al.

HGPS fibroblasts = test: RNA-seq gene expression differential analysis; format: cell-based, human
Method: as §4, §5, §6

skin fibroblast cells = test: Cell viability after H2O2 insults; format: cell-based, human; conditions: H2O2 1 mM, 60 minutes; low and high concentrations of MB
Method: MB or other antioxidant treated skin fibroblast cells were incubated with PBS containing H2O2 at 1 mM for 60 minutes. The cells were then washed three times using PBS and subjected to a cellular stress assay (as described above in 2). See the results obtained in FIG. 11.

[7] = test system: normal and HGPS fibroblasts; test: ATP assay; format: cell-based, human; conditions: MB 100 nM, 5 weeks, vs mock
Method: as §1, §2
Intracellular ATP content was measured by using luminescence ATP detection System (ATPlite, PerkinElmer). Briefly, fibroblast cells were harvested with 0.05% trypsin-EDTA and counted. The same number of 2,500 cells from each fibroblast sample was seeded onto a 96-well black plate (triplicate). After the cells had been lysed with the lysis buffer for five minutes, the substrate solution was added and mixed for another five minutes to conduct the reaction for light generation. After dark adaption for 10 minutes, the luminescence intensity of each well was acquired at luminescence mode with SoftMax Pro software connecting to SpectraMax M5 Microplate Reader.

[8] = test system: EpiDerm Full Thickness (EFT-412); test: ECM gene expression analysis (quantitative PCR array); format: cell-based; conditions: MB for two weeks
Method: The expression of ECM genes were analyzed by quantitative PCR array on EpiDerm Full Thickness (EFT-412).
EFT-412 tissues were treated with MB for 2 weeks. […] Using RCP arrays for ECM remodeling genes. See results obtained in FIG. 14.

[9] = HGPS+Vehicle vs. HGPS+MB, 100 nM

## CN(C)c1ccc2nc3ccc(N(C)C)cc3[s+]c2c1.[Cl-] [MB, 3,7-bis(dimethylamino)-phenothiazin-5-ium chloride]
Skin tissues
  skin hydration: did not increase skin hydration
[1]
  expression of PGC-1α: stimulated the expression of PGC-1α
[2]
  number of severely defective mitochondria: significant reduction in the number of severely defective mitochondria
HGPS cells [3]; MB 100 nM, 6 weeks
  HP1α protein level: upregulation of HP1α protein level
  nuclear HP1α staining: increase in nuclear HP1α staining
HGPS cells [3]; MB 8 weeks
  perinuclear heterochromatin organization (TEM): readily apparent restoration of perinuclear heterochromatin organization
[4]; MB 100 nM, 8 weeks, vs mock
  ROS levels (MitoSOX, DCFDA): reductions in ROS levels
[4]; four weeks treatment, normal and HGPS fibroblasts, comparison with NAC, MitoQ, MitoTEMPO
  MitoSOX level (mitochondria specific superoxide): significant decrease of MitoSOX level
[5]
  dermis / skin thickness: increase dermis thickness; also recorded: Increases Skin Thickness
Progerin in HGPS cells
  progerin distribution in nucleus: clear redistribution of progerin from the nuclear rim into the nucleoplasm
HGPS cells [6]
  senescence (SA-β-gal, p16 expression): younger than the mock-treated cells
Normal fibroblasts
  genes with significant expression changes, down: 0.14%
  genes with significant expression changes, up: 0.19%
HGPS fibroblasts; [9]
  genes affected by MB, down: 0.45%
  genes affected by MB, up: 1.52%
HGPS fibroblasts; Normal+Vehicle vs. HGPS+MB, after one month of MB treatment
  number of differentially expressed genes: 1674
Skin fibroblast cells
  cell viability upon hydrogen peroxide treatment: significantly improved cell viability
[7]
  ATP production: Significant improvements in ATP production
[8]
  normal gene expression (3D skin tests): little or no effect on normal gene expression
